Laboratory results taken from article PMC10112881 (Cell reports, 2023).
Where two headings read alike, the source gives them in different places.

Tests used:
[1] = target: Nav1.5 sodium channels (Homo sapiens, UniProt Q14524); test: Off-target panel: Nav1.5
[2] = system: rest of the histamine and muscarinic GPCRs; test: G protein dissociation BRET assay; format: cell-based, human
[3] = Chronic variable stress: splash test; format: in vivo, female mice; conditions: 1X 3 mg/kg and 4X 1 mg/kg groups
[4] = target: D2 (Homo sapiens, UniProt P14416); test: G protein dissociation BRET assay; format: cell-based
[5] = Forced swim test; format: in vivo, C57BL/6J mice; conditions: 25 h after
[6] = target: 5-HT2C (Homo sapiens, UniProt P28335); format: cell-based; conditions: Gq partial agonism
Chain of 5-HT2C (P28335 33-458): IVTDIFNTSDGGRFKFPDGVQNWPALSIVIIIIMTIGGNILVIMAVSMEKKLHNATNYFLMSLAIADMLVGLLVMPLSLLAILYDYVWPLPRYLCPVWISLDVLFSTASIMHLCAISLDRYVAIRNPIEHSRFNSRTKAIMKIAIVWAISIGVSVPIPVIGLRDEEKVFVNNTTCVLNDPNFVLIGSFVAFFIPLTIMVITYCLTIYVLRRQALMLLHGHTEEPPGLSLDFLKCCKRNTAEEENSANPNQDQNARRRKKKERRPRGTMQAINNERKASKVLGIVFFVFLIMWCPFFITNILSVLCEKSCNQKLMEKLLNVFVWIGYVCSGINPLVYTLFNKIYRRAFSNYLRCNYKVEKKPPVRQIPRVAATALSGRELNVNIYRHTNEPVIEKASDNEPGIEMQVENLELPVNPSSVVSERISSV

[7] = target: D4 (Homo sapiens, UniProt P21917); test: G protein dissociation BRET assay; format: cell-based
Chain of D4 (P21917 whole entry): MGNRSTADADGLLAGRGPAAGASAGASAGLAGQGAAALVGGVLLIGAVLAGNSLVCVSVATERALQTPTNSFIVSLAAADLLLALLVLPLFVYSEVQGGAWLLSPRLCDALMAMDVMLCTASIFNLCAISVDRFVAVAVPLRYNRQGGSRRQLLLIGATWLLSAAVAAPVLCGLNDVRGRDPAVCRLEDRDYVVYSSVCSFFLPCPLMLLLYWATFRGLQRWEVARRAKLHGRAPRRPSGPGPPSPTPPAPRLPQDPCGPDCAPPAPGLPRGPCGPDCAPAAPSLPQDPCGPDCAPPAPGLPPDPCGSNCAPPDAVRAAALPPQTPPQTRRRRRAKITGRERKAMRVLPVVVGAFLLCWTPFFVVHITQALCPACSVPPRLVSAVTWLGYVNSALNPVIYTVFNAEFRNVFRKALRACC

[8] = system: HTR induced by DOI; test: Blockade of DOI-induced head-twitch response; conditions: DOI 1 mg/kg IP
[9] = Pharmacokinetics in plasma and brain of mice; conditions: for mean plasma Cmax / Cmax: IP 6.75 mg/kg; for mean terminal T1/2, plasma: range over doses; for Cmax: read-out: mean plasma Cmax
[10] = target: OCT2 (Homo sapiens, UniProt O15244); test: Transporter panel: OCT2
Chain of OCT2 (O15244 whole entry): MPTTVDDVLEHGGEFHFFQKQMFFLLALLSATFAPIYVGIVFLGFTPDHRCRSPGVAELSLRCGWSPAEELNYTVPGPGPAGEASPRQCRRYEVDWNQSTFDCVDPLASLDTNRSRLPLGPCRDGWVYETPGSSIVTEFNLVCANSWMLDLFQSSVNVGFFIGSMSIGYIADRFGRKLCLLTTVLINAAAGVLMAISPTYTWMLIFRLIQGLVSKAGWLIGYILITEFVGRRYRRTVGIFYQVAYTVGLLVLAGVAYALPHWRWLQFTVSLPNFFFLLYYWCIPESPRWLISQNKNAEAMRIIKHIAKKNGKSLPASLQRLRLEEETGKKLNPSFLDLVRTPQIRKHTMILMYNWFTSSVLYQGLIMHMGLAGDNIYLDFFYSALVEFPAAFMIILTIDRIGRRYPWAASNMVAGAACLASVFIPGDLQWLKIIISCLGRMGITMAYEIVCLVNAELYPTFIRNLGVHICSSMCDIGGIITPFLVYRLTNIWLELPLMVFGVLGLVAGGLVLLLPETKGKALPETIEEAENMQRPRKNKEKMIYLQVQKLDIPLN

[11] = target: T1, 5-HT2A (Homo sapiens, UniProt P28223); format: cell-based; conditions: Gq dissociation
T1 sequence (P28223 whole entry): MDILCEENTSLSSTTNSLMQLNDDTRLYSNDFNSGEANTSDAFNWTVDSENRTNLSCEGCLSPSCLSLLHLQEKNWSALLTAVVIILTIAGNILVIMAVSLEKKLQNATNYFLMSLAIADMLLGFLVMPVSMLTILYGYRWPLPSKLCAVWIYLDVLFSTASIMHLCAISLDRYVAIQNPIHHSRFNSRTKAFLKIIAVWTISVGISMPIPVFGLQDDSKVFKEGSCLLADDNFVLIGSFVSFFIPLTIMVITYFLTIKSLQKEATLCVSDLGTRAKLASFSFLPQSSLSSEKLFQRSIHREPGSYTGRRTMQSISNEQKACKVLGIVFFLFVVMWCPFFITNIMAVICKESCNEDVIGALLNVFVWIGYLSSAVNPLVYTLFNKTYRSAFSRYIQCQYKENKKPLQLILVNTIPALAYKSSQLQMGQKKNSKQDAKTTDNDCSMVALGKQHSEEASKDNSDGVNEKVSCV

[12] = target: T2, 5-HT7a (Homo sapiens, UniProt P34969); test: cAMP accumulation GloSensor assay; format: cell-based; conditions: read-out: EC50 (inverse agonism)
T2 sequence (P34969 1-445 isoform P34969-2): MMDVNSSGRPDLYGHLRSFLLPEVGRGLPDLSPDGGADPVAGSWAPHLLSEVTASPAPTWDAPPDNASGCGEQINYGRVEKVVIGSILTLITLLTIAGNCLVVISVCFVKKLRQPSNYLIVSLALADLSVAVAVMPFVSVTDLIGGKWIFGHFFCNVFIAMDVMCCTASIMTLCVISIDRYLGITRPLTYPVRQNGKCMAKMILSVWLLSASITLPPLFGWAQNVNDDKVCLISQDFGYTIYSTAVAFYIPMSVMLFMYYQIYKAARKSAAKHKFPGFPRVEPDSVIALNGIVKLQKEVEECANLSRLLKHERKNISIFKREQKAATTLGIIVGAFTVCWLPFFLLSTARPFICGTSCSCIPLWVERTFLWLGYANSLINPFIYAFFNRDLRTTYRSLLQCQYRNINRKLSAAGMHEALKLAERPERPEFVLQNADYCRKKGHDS

[13] = system: D1/5 subtypes; test: G protein dissociation BRET assay; format: cell-based, human
[14] = target: α2A (Homo sapiens, UniProt P08913); test: G protein dissociation BRET assay; format: cell-based; conditions: read-out: KB (antagonist)
Chain of α2A (P08913 whole entry): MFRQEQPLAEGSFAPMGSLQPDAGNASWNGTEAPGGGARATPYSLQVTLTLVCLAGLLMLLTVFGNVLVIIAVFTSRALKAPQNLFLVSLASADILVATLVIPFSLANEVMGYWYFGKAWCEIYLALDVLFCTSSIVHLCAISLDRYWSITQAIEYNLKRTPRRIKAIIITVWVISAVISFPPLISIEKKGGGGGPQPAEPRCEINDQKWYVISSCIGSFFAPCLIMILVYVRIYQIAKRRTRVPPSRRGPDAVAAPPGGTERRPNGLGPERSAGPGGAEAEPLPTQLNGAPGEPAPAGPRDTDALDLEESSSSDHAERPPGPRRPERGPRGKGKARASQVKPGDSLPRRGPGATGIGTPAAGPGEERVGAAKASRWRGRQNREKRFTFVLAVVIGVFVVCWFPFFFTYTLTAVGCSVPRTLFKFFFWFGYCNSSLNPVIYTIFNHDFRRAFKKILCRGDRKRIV

[15] = system: rat cortical neurons; test: Spinogenesis in cultured cortical neurons; format: cell-based; conditions: 1 and 10 μM, 3 h at DIV18, read 24 h after onset
[16] = target: α1B (Homo sapiens, UniProt P35368); test: G protein dissociation BRET assay; format: cell-based; conditions: read-out: KB (antagonist)
[17] = target: α2C (Homo sapiens, UniProt P18825); test: G protein dissociation BRET assay; format: cell-based
Chain of α2C (P18825 whole entry): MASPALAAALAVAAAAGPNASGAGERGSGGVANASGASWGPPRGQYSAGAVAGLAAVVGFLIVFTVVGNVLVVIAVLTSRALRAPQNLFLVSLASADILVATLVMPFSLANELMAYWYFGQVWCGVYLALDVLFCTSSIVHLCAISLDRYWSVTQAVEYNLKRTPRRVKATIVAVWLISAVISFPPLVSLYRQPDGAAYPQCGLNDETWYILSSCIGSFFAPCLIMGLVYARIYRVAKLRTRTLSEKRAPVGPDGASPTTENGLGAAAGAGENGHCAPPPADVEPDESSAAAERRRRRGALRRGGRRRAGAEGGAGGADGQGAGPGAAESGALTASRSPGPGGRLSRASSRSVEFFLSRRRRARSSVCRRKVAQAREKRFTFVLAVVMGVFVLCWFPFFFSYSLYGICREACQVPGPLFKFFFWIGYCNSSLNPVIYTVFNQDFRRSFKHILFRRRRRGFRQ

[18] = system: 44 known off-targets and other transporters; test: Eurofins panel of 44 known off-targets and other transporters
[19] = target: T1, 5-HT2A; test: NanoBit HiBiT surface expression/internalization assay; format: cell-based; conditions: 60 minutes of treatment
[20] = target: hERG (KV11.1) channel (Homo sapiens, UniProt Q12809); test: hERG inhibition
[21] = target: 5-HT1A (Homo sapiens, UniProt P08908); test: β-arrestin2 recruitment BRET assay; format: cell-based
Chain of 5-HT1A (P08908 whole entry): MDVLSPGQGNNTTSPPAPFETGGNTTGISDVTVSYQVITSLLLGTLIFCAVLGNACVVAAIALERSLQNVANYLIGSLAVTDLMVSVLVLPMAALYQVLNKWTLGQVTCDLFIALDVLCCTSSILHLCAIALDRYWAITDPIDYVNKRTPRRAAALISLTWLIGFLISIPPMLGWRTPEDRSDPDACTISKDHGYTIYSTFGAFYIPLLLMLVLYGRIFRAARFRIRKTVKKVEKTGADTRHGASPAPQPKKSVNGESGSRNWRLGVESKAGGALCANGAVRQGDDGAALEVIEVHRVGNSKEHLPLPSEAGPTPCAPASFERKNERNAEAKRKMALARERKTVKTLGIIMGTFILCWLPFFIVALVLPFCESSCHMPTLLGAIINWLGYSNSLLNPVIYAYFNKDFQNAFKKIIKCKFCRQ

[22] = target: 5-HT4 (Homo sapiens, UniProt Q13639); test: G protein dissociation BRET assay; format: cell-based
[23] = target: β1 (Homo sapiens, UniProt P08588); test: G protein dissociation BRET assay; format: cell-based; conditions: read-out: KB (antagonist)
[24] = target: 5-HT5A (Homo sapiens, UniProt P47898); test: G protein dissociation BRET assay; format: cell-based; conditions: read-out: KB (antagonist), 37°C, 60 minutes
Chain of 5-HT5A (P47898 whole entry): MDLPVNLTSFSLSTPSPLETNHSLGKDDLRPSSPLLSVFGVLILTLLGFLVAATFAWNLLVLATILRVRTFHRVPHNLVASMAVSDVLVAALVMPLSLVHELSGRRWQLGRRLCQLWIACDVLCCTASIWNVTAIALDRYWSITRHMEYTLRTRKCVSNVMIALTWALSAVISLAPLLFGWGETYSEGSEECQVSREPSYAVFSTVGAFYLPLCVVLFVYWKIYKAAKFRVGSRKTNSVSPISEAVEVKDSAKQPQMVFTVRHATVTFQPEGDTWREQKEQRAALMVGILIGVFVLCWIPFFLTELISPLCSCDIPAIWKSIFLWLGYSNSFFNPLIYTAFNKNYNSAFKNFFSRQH

[25] = cited from earlier work
[26] = target: α1A (Homo sapiens, UniProt P35348); test: G protein dissociation BRET assay; format: cell-based; conditions: read-out: KB (antagonist)
Chain of α1A (P35348 whole entry): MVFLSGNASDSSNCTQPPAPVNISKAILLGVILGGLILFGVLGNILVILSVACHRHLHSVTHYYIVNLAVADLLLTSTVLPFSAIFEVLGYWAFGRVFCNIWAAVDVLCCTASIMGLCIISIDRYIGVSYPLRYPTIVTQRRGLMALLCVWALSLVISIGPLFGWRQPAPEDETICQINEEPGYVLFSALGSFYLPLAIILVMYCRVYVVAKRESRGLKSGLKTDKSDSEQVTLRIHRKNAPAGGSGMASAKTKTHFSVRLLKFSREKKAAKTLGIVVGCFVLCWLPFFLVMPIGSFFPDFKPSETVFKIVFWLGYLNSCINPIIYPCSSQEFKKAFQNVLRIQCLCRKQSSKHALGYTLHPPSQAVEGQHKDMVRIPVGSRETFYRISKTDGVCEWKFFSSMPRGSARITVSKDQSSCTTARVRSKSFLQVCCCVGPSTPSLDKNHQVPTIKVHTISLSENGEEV

[27] = system: head-twitch response; test: Head-twitch response
[28] = Open field test; format: in vivo, C57BL/6J mice; conditions: 24 h after
[29] = Chronic variable stress: open field test; format: in vivo, female mice
[30] = system: primary rat cortical neurons; test: Cell viability of primary cortical neurons; format: cell-based; conditions: every tested concentration
[31] = target: T2, 5-HT7a; test: G protein dissociation BRET assay; format: cell-based
[32] = target: α2B (Homo sapiens, UniProt P18089); test: G protein dissociation BRET assay; format: cell-based; conditions: read-out: KB (antagonist)
[33] = target: D3 (Homo sapiens, UniProt P35462); test: G protein dissociation BRET assay; format: cell-based; conditions: relative to dopamine
Chain of D3 (P35462 whole entry): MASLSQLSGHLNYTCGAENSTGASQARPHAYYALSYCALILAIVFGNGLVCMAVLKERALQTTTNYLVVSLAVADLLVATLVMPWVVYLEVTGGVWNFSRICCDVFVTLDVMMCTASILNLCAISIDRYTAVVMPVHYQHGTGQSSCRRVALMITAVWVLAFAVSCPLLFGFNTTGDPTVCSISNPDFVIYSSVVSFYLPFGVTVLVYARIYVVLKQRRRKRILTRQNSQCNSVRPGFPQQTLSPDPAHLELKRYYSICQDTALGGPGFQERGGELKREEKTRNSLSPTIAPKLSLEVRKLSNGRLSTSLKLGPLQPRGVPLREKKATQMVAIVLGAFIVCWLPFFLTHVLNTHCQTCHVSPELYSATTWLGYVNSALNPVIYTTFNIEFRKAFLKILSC

[34] = system: 33 human aminergic GPCRs; test: Pan-aminergic GPCR functional screen; format: cell-based; conditions: of 33 aminergic GPCR targets tested
[35] = system: HTR induced by DOI; test: Tolerance to DOI-induced HTR after repeated treatment; conditions: 3 mg/kg/day IP 7 days, DOI 1 mg/kg challenge 24 h later
[36] = system: PFC pyramidal neurons; test: Spine density in prefrontal cortex; conditions: 1 mg/kg IP, ~26 h after treatment, both sexes

## CCN(CC)C(=O)[C@@H]1C=C2c3cccc4[nH]c(Br)c(c34)C[C@H]2N(C)C1.CCN(CC)C(=O)[C@@H]1C=C2c3cccc4[nH]c(Br)c(c34)C[C@H]2N(C)C1.O=C(O)C(O)C(O)C(=O)O [2-Br-LSD, (6aR,9R)-2-bromolysergic acid diethylamide (2:1) (+)-tartrate]
[1]
  EC50: 1100 nM
[2]
  agonism or antagonism at the rest of the histamine and muscarinic GPCRs: neither 2-Br-LSD nor LSD possessed weak agonism or antagonism
[3]
  self-grooming time in CVS mice: partial reversal of CVS effects
[4]
  EC50: 0.35 nM
[5]; females, 1 mg/kg IP
  decrease in immobility: 35.18 ± 10.03 s
[5]; males, 0.3 mg/kg IP
  decrease in immobility: 20.89 ± 8.249 s
[5]; males, 1 mg/kg IP
  decrease in immobility: 27.27 ± 8.226 s
[5]; males, 3 mg/kg IP
  decrease in immobility: 31.36 ± 8.226 s
[6]
  EMAX: 45.8%
[7]
  EC50: 1.2 nM
[8]; 1 mg/kg IP pre-treatment
  time-course of blockade of the response to DOI: almost completely blocked during the first 10 minutes
[8]; 3 mg/kg IP pre-treatment, 30 min
  attenuation of the response to DOI: 76%
[9]; 4 h post-dosing
  level in the brain: below the lower limit of detection
[9]; IP
  plasma concentrations, male compared to female mice: 2–5 x
[9]; females
  mean plasma Cmax: 826.06 ng/mL
  Cmax: 2100 nM
[9]; males
  mean plasma Cmax: 1558.74 ng/mL
  Cmax: 3900 nM
[9]; IP, female mice
  mean terminal T1/2, plasma: 0.9 to 2.6 h
[9]; IP, females
  mean T1/2 in the brain: 24 to 78 min
[9]; IP, male and female mice
  mean brain Tmax: 10.2 min
[9]; IP, male mice
  mean terminal T1/2, plasma: 1.2 to 1.4 h
[9]; IP, males
  mean T1/2 in the brain: 42 to 60 min
[9]; IP, all groups except male mice at 0.75 mg/kg
  plasma Tmax: 12 min
[9]; IP, male mice, 0.75 mg/kg
  plasma Tmax: 30 min
[10]
  IC50: 500 nM
[11]
  EC50: 0.81 nM
[11]; normalized to 5-HT
  EMAX: 59.8%
[12]
  EC50: 5.1 nM
[13]
  agonism at D1/5 subtypes: lacks strong agonism
[14]
  Kb: 12 nM
[15]
  spine density: spine density increased
[16]
  Kb: 38 nM
[17]
  EC50: 10.4 nM
[17]; partial agonism
  EMAX: 40.5%
[18]
  preference for serotonin and dopamine GPCRs over off-targets: > 100 fold
[19]
  5-HT2A internalization (loss of surface expression): partial agonist effect
[20]
  EC50: 31.6 µM
[21]
  β-arrestin2 recruitment agonism: no detectable β-arrestin2 recruitment agonism
[22]
  activity at 5-HT4: lack potent agonist or antagonist activity
[23]
  Kb: 113 nM
[24]
  Kb: 4.14 nM
[25]; 30 μg/kg orally on three occasions
  side effects in cluster headache patients: only minor side effects
[25]
  efficacy against cluster headaches: showed efficacy against cluster headaches
[25]; intravenous infusion of 18–22 μg/kg
  subjective effects in humans: more intense effects
[25]; oral doses 64–256 μg/kg
  subjective effects in humans: mild subjective responses
[26]
  Kb: 43 nM
[27]; 0.1–10 mg/kg IP, male C57BL/6J mice, 60 min
  induction of the HTR: did not induce the HTR
[27]; raclopride 1 mg/kg, then 2-Br-LSD 3 mg/kg
  induction of the HTR after S-(–)-raclopride pretreatment: did not induce the HTR
[28]; 0.3, 1, 3 mg/kg IP, females and males
  locomotion (distance travelled): neither females nor males showed a significant increase in locomotion
[28]; female mice, 1 mg/kg IP
  increase in time in the arena center: 88.18 ± 18.89 s
[28]; male mice
  increased exploration of the open field center: not significant
[29]; 1X 3 mg/kg IP
  exploration of the arena center in CVS mice: partially restored the effect of CVS
[29]; 4X 1 mg/kg IP every 48 h
  exploration of the arena center in CVS mice: levels matching the control
[29]; 4X 1 mg/kg, 28 days after the last treatment
  time exploring the center in CVS mice: remained reversed
[30]
  neuronal viability: not different from control neurons
[31]
  activity at 5-HT7a: act as antagonists
[32]
  Kb: 79 nM
[33]
  EMAX: 32%
[34]
  number of aminergic GPCR targets with agonist activity: 14
[35]
  tolerance on HTR after repeated treatment: no tolerance was observed
[36]
  average spine density in PFC: significant increase in average spine density
